Biological target: T1, SstF (SFN-sensing transcription factor, LysR family) (Xanthomonas campestris, UniProt Q8PAP2)
T1 sequence (Q8PAP2 1-344): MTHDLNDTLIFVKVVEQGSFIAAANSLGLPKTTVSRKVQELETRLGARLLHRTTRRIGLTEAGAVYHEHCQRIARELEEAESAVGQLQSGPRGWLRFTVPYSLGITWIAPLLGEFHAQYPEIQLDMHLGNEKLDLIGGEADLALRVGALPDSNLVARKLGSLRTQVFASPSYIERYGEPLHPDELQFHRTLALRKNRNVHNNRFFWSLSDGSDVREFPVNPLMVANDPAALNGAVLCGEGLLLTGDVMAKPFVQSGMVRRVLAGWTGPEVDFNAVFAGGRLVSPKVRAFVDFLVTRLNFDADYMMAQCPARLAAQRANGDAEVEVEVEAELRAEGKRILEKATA
Assay: SPR
Type: binding

## C[S+]([O-])CCCCN=C=S (stereo not shown) [SFN, Sulforaphane]
  Kd: 17.3 nM

Reference: PMC10098062 (Molecular Plant Pathology, 2023)
